Reference: patent US7951827B2, “Synthesis and antiprotozoal activity of dicationic 3,5-diphenylisoxazoles” (The University of North Carolina at Chapel Hill, priority 2005, dated 2011)
Where a name gives a salt, the structure may show the parent alone. Read-outs that look alike come from different tables or passages of the source.

Key:
[1] = system: Trypanosoma brucei brucei; experiment: In vitro antiprotozoal activity against Trypanosoma brucei brucei; format: cell-based; conditions: Trypanosoma brucei
Experimental: (§1) In vitro antiprotozoal activities, see Ismail, M. A., et al., J. Med. Chem. 46, 4761-4769 (2003), and cytotoxicity were measured following established protocols, see Balz, T., et al., EMBO J., 4, 1273-1277 (1985); Räz. B., et al., Acta Trop., 68:139-147 (1997); and Sperandeo, N. R. et al., Chem. Biochem., 4, 69-73 (2003). […] Other positive controls employed were melarsoprol (against T. brucei), chloroquine, and artemisinin (against P. falciparum), and podophyllotoxin (against VERO cells).

[2] = Cytotoxicity to VERO cells; format: cell-based, African green monkey (Cercopithecus Aethiops); conditions: African green monkey (Cercopithecus aethiops), IC50 (μM) Cytotoxicity VERO cells
Experimental: as §1

VERO cells = experiment: Cytotoxicity to VERO cells; format: cell-based, African green monkey (Cercopithecus Aethiops); conditions: for IC50: Chlorocebus sabaeus, Vero, read-out: IC50 value against VERO cells
Experimental: as §1

Plasmodium falciparum = experiment: In vitro antiprotozoal activity against Plasmodium falciparum; format: cell-based; conditions: for IC50: Plasmodium falciparum
Experimental: as §1

[3] = Table 1, read-out: IC50 (μM) Trypanosoma brucei brucei
[4] = Table 1, read-out: IC50 (μM) Plasmodium falciparum
[5] = read-out: antiplasmodial IC50 values (P. falciparum)
[6] = read-out: IC50 values against T. brucei brucei

| Structure (SMILES) | IC50 [1, 3] | IC50 (Plasmodium falciparum; [4]) | IC50 (Plasmodium falciparum; [5]) | melting point | IC50 [1, 6] | IC50 [2] | toxicity (VERO cells) in words (VERO cells) | IC50 (VERO cells) | selectivities against P. falciparum over T. brucei brucei (Plasmodium falciparum) |
| --- | --- | --- | --- | --- | --- | --- | --- | --- | --- |
| CC(C)NC(=N)c1ccc(-c2cc(-c3ccc(C(=N)NC(C)C)cc3)on2)cc1.Cl.Cl [Compound 4, 3,5-Bis[4-(N-isopropyl)amidinophenyl]isoxazole dihydrochloride] | 0.196 µM | 0.0066 µM | < 0.008 µM | – | – | 176 µM | very nontoxic | > 100000 nM | 30 fold |
| COc1cc(C(=N)N)ccc1-c1cc(-c2ccc(C(=N)N)cc2)no1 [Compound 8, 5-(4-Amidino-2-methoxyphenyl)-3-(4-amidinophenyl)isoxazole dihydrochloride] | 0.0106 µM | 0.006 µM | < 0.008 µM | – | – | 122 µM | – | > 100000 nM | – |
| COc1cc(C(=N)N)ccc1-c1cc(-c2ccc(C(=N)N)cc2)on1.Cl.Cl [Compound 11, 3-(4-Amidino-2-methoxyphenyl)-5-(4-amidinophenyl)isoxazole dihydrochloride] | 0.0164 µM | 0.0663 µM | – | 335 to 337 °C (dec.) | – | 92.6 µM | – | > 100000 nM | – |
| COc1cc(C(=N)N)ccc1-c1cc(-c2ccc(C(=N)N)cc2OC)on1 [Compound 12, 3,5-Bis(4-amidino-2-methoxyphenyl)isoxazole dihydrochloride] | 0.013 µM | 0.0061 µM | < 0.008 µM | – | – | 84.8 µM | – | > 100000 nM | – |
| CC(C)NC(=N)c1ccc(-c2cc(-c3cccc(C(=N)NC(C)C)c3)no2)cc1.Cl.Cl [Compound 14, 3-[3-(N-Isopropyl)amidinophenyl]-5-[4-(N-isopropyl)amidinophenyl]-isoxazole dihydrochloride] | 0.488 µM | 0.0106 µM | 0.008 to 0.03 µM | > 350 °C | – | 187 µM | very nontoxic | > 100000 nM | 45 fold |
| COc1cc(C(=N)N)ccc1-c1cc(-c2cccc(C(=N)N)c2)no1.Cl.Cl [Compound 18, 5-(4-Amidino-2-methoxyphenyl)-3-(3-amidinophenyl)isoxazole dihydrochloride] | 0.0065 µM | 0.0035 µM | – | 241 to 246 °C | 0.0065 µM | 177 µM | – | > 100000 nM | – |
| Cl.Cl.N=C(N)c1ccc(-c2cc(-c3cc(C(=N)N)ccc3[N+](=O)[O-])no2)cc1 [Compound 19, 3-(5-Amidino-2-nitrophenyl)-5-(4-amidinophenyl)isoxazole dihydrochloride] | 0.0512 µM | 0.0021 µM | – | 238 to 240 °C | – | 5.07 µM | quite toxic | – | – |
| COc1ccc(C(=N)N)cc1-c1cc(-c2ccc(C(=N)N)cc2)on1.Cl.Cl [Compound 21, 3-(5-Amidino-2-methoxyphenyl)-5-(4-amidinophenyl)isoxazole dihydrochloride] | 0.0118 µM | 0.0026 µM | – | 272 to 275 °C | – | 213 µM | – | > 100000 nM | – |
| CC(C)NC(=N)c1ccc(-c2cc(-c3cccc(C(=N)NC(C)C)c3)on2)cc1.Cl.Cl [Compound 23, 3-[4-(N-Isopropyl)amidinophenyl]-5-[3-(N-isopropyl)amidinophenyl]-isoxazole dihydrochloride] | 0.316 µM | 0.0347 µM | – | 340 to 343 °C (dec.) | – | 186 µM | very nontoxic | > 100000 nM | – |
| Cl.Cl.N=C(N)c1cccc(-c2cc(-c3ccc(C(=N)N)cc3[N+](=O)[O-])no2)c1 [Compound 27, 3-(4-Amidino-2-nitrophenyl)-5-(3-amidinophenyl)isoxazole dihydrochloride] | 0.0194 µM | 0.0304 µM | – | 236 °C (dec.) | – | 206 µM | low toxicity | > 100000 nM | – |
| COc1cc(C(=N)N)ccc1-c1cc(-c2cccc(C(=N)N)c2)on1.Cl.Cl [Compound 29, 3-(4-Amidino-2-methoxyphenyl)-5-(3-amidinophenyl)isoxazole dihydrochloride] | 0.0059 µM | 0.0089 µM | 0.008 to 0.03 µM | 288 °C (dec.) | 0.0035 to 0.009 µM | 136 µM | – | > 100000 nM | – |
| COc1ccc(C(=N)N)cc1-c1cc(-c2ccc(C(=N)N)cc2[N+](=O)[O-])no1.Cl.Cl [Compound 30, 5-(5-Amidino-2-methoxyphenyl)-3-(4-amidino-2-nitrophenyl)isoxazole dihydrochloride] | 0.0342 µM | 0.0195 µM | 0.008 to 0.03 µM | 260 °C (dec.) | – | 116 µM | – | > 100000 nM | – |

Further lines, with some results ahead:

| IC50 [1, 3] | IC50 (Plasmodium falciparum; [4]) | IC50 (Plasmodium falciparum; [5]) | melting point | IC50 [1, 6] | Structure (SMILES) | IC50 [2] | toxicity (VERO cells) in words (VERO cells) | IC50 (VERO cells) | selectivities against P. falciparum over T. brucei brucei (Plasmodium falciparum) |
| --- | --- | --- | --- | --- | --- | --- | --- | --- | --- |
| 0.0057 µM | 0.0297 µM | 0.008 to 0.03 µM | 330 °C (dec.) | 0.0035 to 0.009 µM | COc1cc(C(=N)N)ccc1-c1cc(-c2cc(C(=N)N)ccc2OC)on1.Cl.Cl [Compound 31, 3-(4-Amidino-2-methoxyphenyl)-5-(5-amidino-2-methoxyphenyl)isoxazole dihydrochloride] | 191 µM | – | > 100000 nM | – |
| 0.029 µM | 0.0092 µM | 0.008 to 0.03 µM | 365 to 367 °C | 0.029 µM | Cl.Cl.N=C(N)c1cccc(-c2cc(-c3cccc(C(=N)N)c3)on2)c1 [Compound 32, 3,5-Bis(3-amidinophenyl)isoxazole dihydrochloride] | 153 µM | low toxicity | > 100000 nM | – |
| 4.98 µM | 0.0431 µM | – | 260 °C (dec.) | – | CC(C)NC(=N)c1cccc(-c2cc(-c3cccc(C(=N)NC(C)C)c3)on2)c1.Cl.Cl [Compound 33, 3,5-Bis[3-(N-isopropyl)amidinophenyl]isoxazole dihydrochloride] | 180 µM | very nontoxic | > 100000 nM | – |
| 0.0251 µM | 0.0163 µM | 0.008 to 0.03 µM | 347 °C (dec.) | – | Cl.Cl.N=C(N)c1cccc(-c2cc(-c3cc(C(=N)N)ccc3Cl)on2)c1 [Compound 36, 5-(5-Amidino-2-chlorophenyl)-3-(3-amidinophenyl)isoxazole dihydrochloride] | 109 µM | low toxicity | > 100000 nM | – |
| 0.0074 µM | 0.0192 µM | 0.008 to 0.03 µM | 240 °C (dec.) | 0.0035 to 0.009 µM | COc1ccc(C(=N)N)cc1-c1cc(-c2cccc(C(=N)N)c2)no1.Cl.Cl [Compound 37, 5-(5-Amidino-2-methoxyphenyl)-3-(3-amidinophenyl)isoxazole dihydrochloride] | 124 µM | – | > 100000 nM | – |
| 0.085 µM | 0.104 µM | – | 220 °C (dec.) | – | Cl.Cl.N=C(N)c1cccc(-c2cc(-c3cc(C(=N)N)ccc3[N+](=O)[O-])no2)c1 [Compound 38, 3-(5-Amidino-2-nitrophenyl)-5-(3-amidinophenyl)isoxazole dihydrochloride] | 177 µM | low toxicity | > 100000 nM | – |
